Results reported in ChEMBL document CHEMBL3885881, “DrugMatrix”.

Organism: Rattus norvegicus
Experiment: DrugMatrix - Regimen: Daily Repeat
Format: toxicity, organism-based, Sprague-Dawley
Set-up: regimen Daily Repeat, gender Male, age 6-8 weeks
Settings: in vivo, po, route oral GAVAGE, […]; for ABSOLUTE BASOPHIL / ABSOLUTE EOSINOPHIL / ABSOLUTE LYMPHOCYTE / ABSOLUTE MONOCYTE / ABSOLUTE SEGMENTED NEUTROPHIL / BASOPHIL / EOSINOPHIL / ERYTHROCYTE COUNT / HEMATOCRIT / HEMOGLOBIN / LEUKOCYTE COUNT / LYMPHOCYTE / MEAN CORPUSCULAR HEMOGLOBIN / MEAN CORPUSCULAR HEMOGLOBIN CONCENTRATION / MEAN CORPUSCULAR VOLUME / MONOCYTE / NEUTROPHIL / NUCLEATED RED BLOOD CELLS / PLATELET COUNT: tissue Blood; for ALANINE AMINOTRANSFERASE / ALKALINE PHOSPHATASE / ASPARTATE AMINOTRANSFERASE / BLOOD UREA NITROGEN / CARBON DIOXIDE / CHLORIDE / CHOLESTEROL / CREATINE PHOSPHOKINASE / CREATININE / GLUCOSE / LACTATE DEHYDROGENASE / LIPASE / PHOSPHORUS / POTASSIUM / SODIUM / TOTAL BILIRUBIN / TOTAL PROTEIN / URIC ACID: tissue Plasma
[1] = 0 mg/kg, 72 h, dose level Control, time 3 day
[2] = 0 mg/kg, 120 h, dose level Control, time 5 day
[3] = 36 mg/kg, 72 h, dose level Low, time 3 day

Structure (SMILES): c1ccc2c(c1)Nc1ccccc1S2 [PHENOTHIAZINE]
- ABSOLUTE BASOPHIL [1]: 0 CELLS/uL
- ABSOLUTE EOSINOPHIL [1]: 0 CELLS/uL
- ABSOLUTE LYMPHOCYTE [1]: 6275.67 CELLS/uL
- ABSOLUTE MONOCYTE [1]: 40.67 CELLS/uL
- ABSOLUTE SEGMENTED NEUTROPHIL [1]: 633.67 CELLS/uL
- BASOPHIL [1]: 0%
- EOSINOPHIL [1]: 0%
- ERYTHROCYTE COUNT [1]: 5.2 x10E6/uL
- HEMATOCRIT [1]: 32.78%
- HEMOGLOBIN [1]: 12.98 G/DL
- LEUKOCYTE COUNT [1]: 6.95 x10E3/uL
- LYMPHOCYTE [1]: 90.17%
- MEAN CORPUSCULAR HEMOGLOBIN [1]: 24.97 pg
- MEAN CORPUSCULAR HEMOGLOBIN CONCENTRATION [1]: 39.62 G/DL
- MEAN CORPUSCULAR VOLUME [1]: 63.03 fL
- MONOCYTE [1]: 0.67%
- NEUTROPHIL [1]: 9.17%
- NUCLEATED RED BLOOD CELLS [1]: 0 /100WBC
- PLATELET COUNT [1]: 1082.83 x10E3/uL
- ALANINE AMINOTRANSFERASE [1]: 69.67 u/L
- ALKALINE PHOSPHATASE [1]: 430.5 u/L
- ASPARTATE AMINOTRANSFERASE [1]: 90.83 u/L
- BLOOD UREA NITROGEN [1]: 13 mg/dL
- CARBON DIOXIDE [1]: 33 mmol/L
- CHLORIDE [1]: 99.17 MEQ/L
- CHOLESTEROL [1]: 70.5 mg/dL
- CREATINE PHOSPHOKINASE [1]: 253.33 u/L
- CREATININE [1]: 0.13 mg/dL
- GLUCOSE [1]: 157.17 mg/dL
- LACTATE DEHYDROGENASE [1]: 85 u/L
- LIPASE [1]: 10 u/L
- PHOSPHORUS [1]: 10.2 mg/dL
- POTASSIUM [1]: 5.78 MEQ/L
- SODIUM [1]: 144.12 MEQ/L
- TOTAL BILIRUBIN [1]: 0.2 mg/dL
- TOTAL PROTEIN [1]: 5.8 G/DL
- URIC ACID [1]: 0.8 mg/dL
- ABSOLUTE BASOPHIL [2]: 0 CELLS/uL
- ABSOLUTE EOSINOPHIL [2]: 0 CELLS/uL
- ABSOLUTE LYMPHOCYTE [2]: 10431 CELLS/uL
- ABSOLUTE MONOCYTE [2]: 90.5 CELLS/uL
- ABSOLUTE SEGMENTED NEUTROPHIL [2]: 1111.83 CELLS/uL
- BASOPHIL [2]: 0%
- EOSINOPHIL [2]: 0%
- ERYTHROCYTE COUNT [2]: 5.51 x10E6/uL
- HEMATOCRIT [2]: 34.67%
- HEMOGLOBIN [2]: 13.5 G/DL
- LEUKOCYTE COUNT [2]: 11.63 x10E3/uL
- LYMPHOCYTE [2]: 89.67%
- MEAN CORPUSCULAR HEMOGLOBIN [2]: 24.5 pg
- MEAN CORPUSCULAR HEMOGLOBIN CONCENTRATION [2]: 38.95 G/DL
- MEAN CORPUSCULAR VOLUME [2]: 62.87 fL
- MONOCYTE [2]: 0.67%
- NEUTROPHIL [2]: 9.67%
- NUCLEATED RED BLOOD CELLS [2]: 0 /100WBC
- PLATELET COUNT [2]: 1052.67 x10E3/uL
- ALANINE AMINOTRANSFERASE [2]: 54.67 u/L
- ALKALINE PHOSPHATASE [2]: 359.83 u/L
- ASPARTATE AMINOTRANSFERASE [2]: 83 u/L
- BLOOD UREA NITROGEN [2]: 13.5 mg/dL
- CARBON DIOXIDE [2]: 27.17 mmol/L
- CHLORIDE [2]: 98.5 MEQ/L
- CHOLESTEROL [2]: 66.83 mg/dL
- CREATINE PHOSPHOKINASE [2]: 256.17 u/L
- CREATININE [2]: 0.19 mg/dL
- GLUCOSE [2]: 171.33 mg/dL
- LACTATE DEHYDROGENASE [2]: 91.5 u/L
- LIPASE [2]: 10.5 u/L
- PHOSPHORUS [2]: 8.72 mg/dL
- POTASSIUM [2]: 5.34 MEQ/L
- SODIUM [2]: 142.53 MEQ/L
- TOTAL BILIRUBIN [2]: 0.2 mg/dL
- TOTAL PROTEIN [2]: 6.05 G/DL
- URIC ACID [2]: 0.6 mg/dL
- ABSOLUTE BASOPHIL [3]: 0 CELLS/uL
- ABSOLUTE EOSINOPHIL [3]: 54.67 CELLS/uL
- ABSOLUTE LYMPHOCYTE [3]: 10865.33 CELLS/uL
- ABSOLUTE MONOCYTE [3]: 53.67 CELLS/uL
- ABSOLUTE SEGMENTED NEUTROPHIL [3]: 926.33 CELLS/uL
- BASOPHIL [3]: 0%
- EOSINOPHIL [3]: 0.67%
- ERYTHROCYTE COUNT [3]: 5.23 x10E6/uL
- HEMATOCRIT [3]: 34.4%
- HEMOGLOBIN [3]: 13.4 G/DL
- LEUKOCYTE COUNT [3]: 11.9 x10E3/uL
- LYMPHOCYTE [3]: 91%
- MEAN CORPUSCULAR HEMOGLOBIN [3]: 25.6 pg
- MEAN CORPUSCULAR HEMOGLOBIN CONCENTRATION [3]: 39 G/DL
- MEAN CORPUSCULAR VOLUME [3]: 65.73 fL
- MONOCYTE [3]: 0.33%
- NEUTROPHIL [3]: 8%
- NUCLEATED RED BLOOD CELLS [3]: 0 /100WBC
- PLATELET COUNT [3]: 973 x10E3/uL
- ALANINE AMINOTRANSFERASE [3]: 62.67 u/L
- ALKALINE PHOSPHATASE [3]: 333.33 u/L
- ASPARTATE AMINOTRANSFERASE [3]: 94.33 u/L
- BLOOD UREA NITROGEN [3]: 11.67 mg/dL
- CARBON DIOXIDE [3]: 26.67 mmol/L
- CHLORIDE [3]: 98 MEQ/L
- CHOLESTEROL [3]: 63.67 mg/dL
- CREATINE PHOSPHOKINASE [3]: 272.33 u/L
- CREATININE [3]: 0.28 mg/dL
- GLUCOSE [3]: 138 mg/dL
- LACTATE DEHYDROGENASE [3]: 84 u/L
- LIPASE [3]: 10.33 u/L
- PHOSPHORUS [3]: 10.03 mg/dL
- POTASSIUM [3]: 5.46 MEQ/L
- SODIUM [3]: 142.1 MEQ/L
- TOTAL BILIRUBIN [3]: 0.17 mg/dL
- TOTAL PROTEIN [3]: 5.37 G/DL
- URIC ACID [3]: 0.57 mg/dL
